# Reference: ChEMBL document CHEMBL2034901, “Novel 3,6,7-substituted pyrazolopyrimidines as positive allosteric modulators for the hydroxycarboxylic acid receptor 2 (GPR109A)” (J Med Chem, 2012)
# Molecular target: Hydroxycarboxylic acid receptor 2 (Homo sapiens) (UniProt Q8TDS4)
# Assay: Positive allosteric activity at GPR109A in human HEK cells assessed as shift in EC50 of nicotinic acid at 1 uM pretreated for 30 mins measured after 90 mins by [35S]-GTPgammaS binding assay
# Format: functional, cell-based
# Details: HEK293
# Chain of Hydroxycarboxylic acid receptor 2 (Homo sapiens) (Q8TDS4 whole entry): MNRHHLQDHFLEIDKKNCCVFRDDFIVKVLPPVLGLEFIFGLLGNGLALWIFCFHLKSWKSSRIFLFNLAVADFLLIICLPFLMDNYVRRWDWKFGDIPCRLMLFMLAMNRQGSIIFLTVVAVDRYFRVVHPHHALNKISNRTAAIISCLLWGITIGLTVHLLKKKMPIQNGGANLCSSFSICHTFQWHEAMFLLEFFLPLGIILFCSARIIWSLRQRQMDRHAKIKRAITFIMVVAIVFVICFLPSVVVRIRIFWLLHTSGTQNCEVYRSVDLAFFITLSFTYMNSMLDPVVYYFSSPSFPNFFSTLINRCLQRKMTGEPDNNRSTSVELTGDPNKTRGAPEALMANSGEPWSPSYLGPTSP
row,Emax,SMILES
1,111%,Cc1c(C(=O)NCCOc2ccccc2)cnc2c(-c3ccc(OC(C)C)cc3)cnn12
2,120%,Cc1c(C(=O)NCCNc2ccccc2)cnc2c(-c3ccc(C(C)C)cc3)cnn12
3,122%,CCc1c(C(=O)NCCOc2ccccc2)cnc2c(-c3ccc(C(C)C)cc3)cnn12

# Molecular target: Hydroxycarboxylic acid receptor 2 (Homo sapiens) (UniProt Q8TDS4)
# Assay: Positive allosteric activity at GPR109A in human HEK cells assessed as shift in EC50 of nicotinic acid at 3 uM pretreated for 30 mins measured after 90 mins by [35S]-GTPgammaS binding assay
# Format: functional, cell-based
# Details: HEK293
row,Emax,SMILES
1,123%,Cc1c(C(=O)NCCOc2ccccc2)cnc2c(-c3ccc(OC(C)C)cc3)cnn12
2,114%,Cc1c(C(=O)NCCOc2ccccc2)cnc2c(-c3ccc(Cl)c(Cl)c3)cnn12
3,129%,Cc1c(C(=O)NCCNc2ccccc2)cnc2c(-c3ccc(C(C)C)cc3)cnn12
4,129%,CCc1c(C(=O)NCCOc2ccccc2)cnc2c(-c3ccc(C(C)C)cc3)cnn12
